In US9216983B2, “Dihydroorotate dehydrogenase inhibitors with selective anti-malarial activity” (BOARD OF REGENTS, UNIVERSITY OF TEXAS SYSTEM, priority 2007, dated 2015) one finds IC50 data, which are given here for 41 molecules.

One assay deals with T1, PfDHODH (Plasmodium falciparum, UniProt Q08210).
T1 sequence (Q08210 24-569): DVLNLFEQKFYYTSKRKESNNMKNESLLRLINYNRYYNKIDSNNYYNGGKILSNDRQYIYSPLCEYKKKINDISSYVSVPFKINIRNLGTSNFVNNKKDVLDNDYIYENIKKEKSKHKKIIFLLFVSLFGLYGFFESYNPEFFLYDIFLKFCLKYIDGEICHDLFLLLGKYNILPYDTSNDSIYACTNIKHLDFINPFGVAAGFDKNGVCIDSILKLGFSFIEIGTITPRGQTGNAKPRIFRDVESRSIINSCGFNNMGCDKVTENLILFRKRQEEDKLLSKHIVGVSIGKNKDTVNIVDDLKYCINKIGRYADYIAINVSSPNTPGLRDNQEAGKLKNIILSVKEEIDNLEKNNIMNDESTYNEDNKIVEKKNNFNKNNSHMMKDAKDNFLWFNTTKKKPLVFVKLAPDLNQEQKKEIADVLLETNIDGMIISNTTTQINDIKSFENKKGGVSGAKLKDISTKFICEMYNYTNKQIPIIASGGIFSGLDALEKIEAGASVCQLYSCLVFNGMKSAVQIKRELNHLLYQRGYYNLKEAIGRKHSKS
The assay is described as follows: biochemical. The method, then:
(§1) Briefly, the assay solution contained 100 mM HEPES, pH 8.0, 150 mM NaCl, 10% glycerol, 0.1% Triton X-100, 20 micro molar COQD (coenzyme QD), 200 micro molar L-dihydroorotate, and 120 micro molar DCIP. Reactions are initiated by addition of enzyme to a final concentration in the range of about […] to about 50 nM while maintaining the temperature of a circulating water bath at 25° C.
(§2) Assay solutions were prepared as discussed above, except that DCIP is not present and the solution is depleted of oxygen by the inclusion of an oxidase/reductase system, such as, 0.1 mg/ml of glucose oxidase, 0.02 mg/ml catalase and 50 mM glucose. The data obtained is fitted to equation 1, to determine the IC50 values of the representative compounds.

For the next assay, the target named is PbDHODH (Plasmodium berghei, UniProt A0A509AEH5). The assay is described as follows: DHODH enzyme inhibition assay, PbDHODH. The following applies: Table 4, IC50 class. It counts as biochemical, P. berghei. The method, then: as §1, §2
Where [1] appears, read: Table 4, IC50 class, read-out: PfDHODH.
Where [2] appears, read: Table 5, read-out: PfDHODH IC50.

Like-named read-outs stand apart in the source and are kept apart here.

Sequence of PbDHODH (A0A509AEH5 entry or part of it): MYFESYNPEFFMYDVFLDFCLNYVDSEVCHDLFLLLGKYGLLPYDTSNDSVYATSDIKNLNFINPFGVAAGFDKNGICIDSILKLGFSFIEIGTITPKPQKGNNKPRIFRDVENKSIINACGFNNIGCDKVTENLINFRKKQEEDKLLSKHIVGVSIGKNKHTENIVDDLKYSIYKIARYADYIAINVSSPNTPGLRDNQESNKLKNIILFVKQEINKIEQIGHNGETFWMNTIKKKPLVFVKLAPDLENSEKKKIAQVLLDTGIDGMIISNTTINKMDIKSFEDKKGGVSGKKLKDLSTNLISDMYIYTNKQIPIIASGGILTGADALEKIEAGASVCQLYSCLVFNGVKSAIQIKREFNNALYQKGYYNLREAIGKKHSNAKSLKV

Take `Cc1cc(Nc2ccc(-c3ccccc3)cc2)n2ncnc2n1`: the IC50 on PfDHODH (setting [1]) lay in the range of 2000 to 10000 nM. For the molecule `Cc1cc(Nc2ccc(F)cc2)n2ncnc2n1`, the IC50 against PbDHODH (PbDHODH) and at PfDHODH (setting [1]) was > 10000 nM throughout. Take `Cc1cc(Nc2ccccc2F)n2ncnc2n1`: the IC50 against PbDHODH (PbDHODH) and at PfDHODH (setting [1]) was > 10000 nM each time. For the molecule `Cc1cc(Nc2ccc(C#N)cc2)n2ncnc2n1`, the IC50 on PfDHODH (setting [1]) was 2000 to 10000 nM. `Cc1cc(Nc2ccccc2C(F)(F)F)n2ncnc2n1`: the IC50 on PbDHODH (PbDHODH) and at PfDHODH (setting [1]) was > 10000 nM throughout.

In the case of `Cc1cc(Nc2ccccc2C#N)n2ncnc2n1`, the IC50 on PbDHODH (PbDHODH) and on PfDHODH (setting [1]) was > 10000 nM throughout. As to `Cc1cc(Nc2ccccc2C)n2ncnc2n1`, the IC50 against PbDHODH (PbDHODH) and on PfDHODH (setting [1]) was > 10000 nM each time.

For the molecule `C=Cc1ccc(Nc2cc(C)nc3ncnn23)cc1`, the IC50 against PbDHODH (PbDHODH) was in the range of 2000 to 10000 nM. Regarding `Cc1cc(Nc2ccc(Cl)c(C(F)(F)F)c2)n2ncnc2n1`, the IC50 on PbDHODH (read-out: PbDHODH) and on PfDHODH (setting [1]) was < 2000 nM in each case. Turning to `Cc1cc(Nc2ccc(C(C)(C)C)cc2)n2ncnc2n1`, the IC50 against PbDHODH (PbDHODH) and at PfDHODH (setting [1]) was < 2000 nM each time. On to `Cc1cc(Nc2ccc(N(C)C)cc2)n2ncnc2n1`, for which the IC50 at PbDHODH (PbDHODH) was > 10000 nM; at PfDHODH (setting [1]), < 2000 nM. With `Cc1cc(Nc2c(F)c(F)cc(F)c2F)n2ncnc2n1`, the IC50 against PbDHODH (PbDHODH) and on PfDHODH (setting [1]) was > 10000 nM throughout. Regarding `Cc1cc(Nc2c(F)c(F)c(F)c(F)c2F)n2ncnc2n1`, the IC50 at PbDHODH (PbDHODH) and at PfDHODH (setting [1]) was > 10000 nM each time. Consider `CCc1nc2nc(C)cc(Nc3cccc(C(F)(F)F)c3)n2n1`, for which, on PfDHODH (setting [2]), the IC50 stood at 1170 nM. As for `CCCc1nc2nc(C)cc(Nc3cccc(Cl)c3)n2n1`, the IC50 on PfDHODH (setting [2]) amounted to 247 nM. `Cc1cc(Nc2ccc(C)c(C)c2)n2nc(C)nc2n1`: the IC50 at PfDHODH (setting [2]) turned out to be 81.4 nM.

In the case of `Cc1cc(Nc2ccc(Cl)c(Cl)c2)n2nc(C)nc2n1`, the IC50 at PfDHODH (setting [2]) was 75.2 nM. On the same count and under the same terms, to `CCc1nc2nc(C)cc(Nc3ccc(OC)cc3)n2n1` belongs 2250 nM; to `CCc1nc2nc(C)cc(Nc3ccc(I)cc3)n2n1`, 37.9 nM; to `Cc1cc(Nc2cccc(C(F)(F)F)c2)n2nc(C)nc2n1`, 285 nM. On to `Cc1cc(Nc2ccc(Cl)c(C)c2)n2nc(C)nc2n1`, for which the IC50 at PfDHODH (setting [2]) was found to be 1390 nM. Consider `CCCc1nc2nc(C)cc(Nc3ccc(C)c(Cl)c3)n2n1`, for which the IC50 on PfDHODH (setting [2]) is 132 nM. Still for that read-out and setting: the result for `CCc1cccc(Nc2cc(C)nc3ncnn23)c1` reads 641 nM; that for `Cc1cc(Nc2ccc(C)c(Cl)c2)n2ncnc2n1`, 240 nM; that for `COc1ccc(Nc2cc(C)nc3ncnn23)cc1Cl`, 362 nM.

Take `CCc1nc2nc(C)cc(Nc3ccc(C)c(F)c3)n2n1`: on PfDHODH (setting [2]), the IC50 turned out to be 66.3 nM. Consider `CCCc1nc2nc(C)cc(Nc3ccc(C)c(F)c3)n2n1`, for which the IC50 on PfDHODH (setting [2]) was 277 nM. On to `CCc1nc2nc(C)cc(Nc3ccc(Br)cc3F)n2n1`, for which the IC50 at PfDHODH (setting [2]) turned out to be 395 nM. On the same count and under the same terms, to `CCc1nc2nc(C)cc(Nc3ccc(F)c(Cl)c3)n2n1` belongs 145 nM; to `Cc1cc(Nc2ccc(C)c(F)c2)n2nc(C)nc2n1`, 629 nM.

As for `Cc1cc(Nc2ccc(I)cc2)n2ncnc2n1`, at PfDHODH (setting [2]), the IC50 was determined as 151 nM.

With `Cc1cc(Nc2ccc(OCc3ccccc3)cc2)n2ncnc2n1`, the IC50 at PfDHODH (setting [2]) amounted to 6300 ± 950 nM. `C#Cc1ccc(Nc2cc(C)nc3ncnn23)cc1`: the IC50 on PfDHODH (setting [2]) was 990 ± 180 nM. In the case of `Cc1cc(Nc2ccc(N3CCOCC3)cc2)n2ncnc2n1`, at PfDHODH (setting [2]), the IC50 is > 100000 nM. `Cc1cc(Nc2ccc3c(c2)CCCC3)n2ncnc2n1`: the IC50 on PfDHODH (setting [2]) was 50 ± 8 nM.

`Cc1cc(Nc2ccc3c(c2)CCC3)n2ncnc2n1`: the IC50 on PfDHODH (setting [2]) is 116 ± 30 nM.

As for `Cc1cc(Nc2ccc(S(F)(F)(F)(F)F)cc2)n2ncnc2n1`, the IC50 at PfDHODH (setting [2]) came to 117 ± 10 nM. In the case of `Cc1cc(Nc2cccc(Cl)c2)n2ncnc2n1` [drawing 35], the IC50 against PfDHODH (PfDHODH, Table 4, IC50 class) is < 2000 nM. As to `COc1ccc(Nc2cc(C)nc3nc(C)nn23)cc1Cl` [drawing 98], on PfDHODH (setting [2]), the IC50 was determined as 375 nM.

Regarding `COc1ccc(Nc2cc(C)nc3nc(C)nn23)cc1Cl` [drawing 99], at PfDHODH (setting [2]), the IC50 stood at 326 nM. As to `Cc1cc(Nc2cccc(Cl)c2)n2ncnc2n1` [drawing 116], on PfDHODH (PfDHODH IC50, Table 5), the IC50 amounted to 566 nM.
